# Literature values, collected in US20050209250A1, “Therapeutic combinations of atypical antipsychotics with corticotropin releasing factor antagonists” (Pfizer Inc, priority 2004, published 2005).
# Assays:
# [1] = not given; remark: listed apart in the source
structure (smiles),measurement,setting,value
"Cl.O.O=C1Cc2cc(CCN3CCN(c4nsc5ccccc45)CC3)c(Cl)cc2N1 [ziprasidone, 5-[2-[4-(1,2-benzisothiazol-3-yl)piperazin-1-yl]ethyl]-6-chloroindolin-2-one hydrochloride hydrate]",half-life,in vivo,6 to 7 h
same,Oral bioavailability,taken with food,approximately 60%
same,protein binding,[1],extensive
